Consider 17 compounds from patent US11667651B2, “Aminopyridine derivatives as phosphatidylinositol phosphate kinase inhibitors” (HiberCell, Inc., priority 2017, dated 2023).

For experiment [1], the target named is T1, PIP4K2B (Homo sapiens, UniProt P78356).
T1 construct: made in house; host or cells: E. coli
T1 sequence (P78356 1-416): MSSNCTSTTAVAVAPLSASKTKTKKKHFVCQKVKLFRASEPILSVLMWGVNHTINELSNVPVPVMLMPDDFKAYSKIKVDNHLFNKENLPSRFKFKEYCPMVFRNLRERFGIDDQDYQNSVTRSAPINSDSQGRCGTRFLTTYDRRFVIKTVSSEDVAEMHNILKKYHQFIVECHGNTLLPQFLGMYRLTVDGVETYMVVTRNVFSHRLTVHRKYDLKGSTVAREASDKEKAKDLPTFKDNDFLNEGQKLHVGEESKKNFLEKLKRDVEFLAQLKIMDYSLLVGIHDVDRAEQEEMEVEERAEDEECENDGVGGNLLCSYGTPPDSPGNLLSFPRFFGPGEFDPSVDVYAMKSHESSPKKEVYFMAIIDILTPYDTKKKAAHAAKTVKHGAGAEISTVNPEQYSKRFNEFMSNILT
The experiment can be described thus: Trans-FI P kinase assay PIP4K2B (Table 4). The experiment is classed as biochemical. Conditions: compounds listed under IC50 bins; read-out: Trans-FI P kinase assays: PIP4K2B IC50. From the text:
GST tagged PIP4KtypeIIA and B enzymes were overexpressed in E. Coli and purified to >80% homogeneity. Phosphatidyl inositol-5-phosphate (PI5P, Cat. #850152, Avanti Polar Lipids Inc.) was used as the lipid substrate and phosphatidyl ethanolamine (DOPE 18:1, Cat. #850725, Avanti Polar Lipids Inc.) was used as the carrier lipid for assays. Ultrapure ATP and GTP was purchased from Bellbrooke Labs. ADP Glo reagents were obtained from Promega. Transcreener FI reagent was obtained from Bellbrooke labs.
GST-tagged PIP4KtypeIIB (3.4 μL, 2.77 mg/mL) was diluted to 5 mL using HNE buffer to yield 5× enzyme stock (25 nM)
Lipid Preparation: In a 10 mL pyrex glass vial, […] were suspended in 2.5 mL of HEPES buffer mix and 2.5 mL of H:E buffer. The contents were mixed and sonicated for 3 min to yield a translucent lipid stock.
Compound Preparation: Compounds were stored as 5 mM stocks in neat DMSO as room temperature in glass vials. 5 mM stocks were diluted to 2 mM and then serially diluted (3×) in neat DMSO in 96 well polypropylene plates. From the serially diluted stocks, 3 μL was delivered into 250 μL of 25% DMSO (in water) to generate 5× compound stocks. Typically, the highest compound conc. was 24 μM.
The assay volume was kept at 25 μL. To each well of the reaction plate, 10 μL of lipid stock (1:1 ratio PI5P:DOPE) was delivered. This was followed by the addition of 5 μL of compound in 25% DMSO. Then, to each well, 5 μL of 25 nM (5×) typeIIB enzyme was delivered. The contents were mixed well and incubated for 1 h at 27° C. After 1 h, reaction was initiated by adding 5 μL of 500 μM GTP and the contents were mixed well with a multi-channel pipetteman. The final concentration of the reagents are as follows: 50 mM HEPES, pH 7.3, 10 mM MgCl2, 20 mM NaCl, 0.01% v/v triton-X100, 5% DMSO, 100 μM GTP, 80 μM (2 μg) PI5P, 2 μg DOPE, and 5 nM PIP4KIIB Typically, the highest conc. of compounds was 4.8 μM and the lowest conc. was 0.
After 2 h, the reaction was quenched by adding 25 μL of transcreener FI reagent. The contents were incubated at rt for 1 h and the Fluorescence (Ex: 584 Em: 623) was read using Molecular Devices Paradigm plate reader. […] The blanks were averaged and subtracted from all other wells. Using a calibration curve, RFU was converted to μM GDP (product). IC50 was calculated by plotting the residual activity (expressed as % No inhibitor control) vs. log [Inh. conc.]

In experiment [2] the target is T2, PIP4K2A (Homo sapiens, UniProt P48426).
T2 sequence (P48426 1-406): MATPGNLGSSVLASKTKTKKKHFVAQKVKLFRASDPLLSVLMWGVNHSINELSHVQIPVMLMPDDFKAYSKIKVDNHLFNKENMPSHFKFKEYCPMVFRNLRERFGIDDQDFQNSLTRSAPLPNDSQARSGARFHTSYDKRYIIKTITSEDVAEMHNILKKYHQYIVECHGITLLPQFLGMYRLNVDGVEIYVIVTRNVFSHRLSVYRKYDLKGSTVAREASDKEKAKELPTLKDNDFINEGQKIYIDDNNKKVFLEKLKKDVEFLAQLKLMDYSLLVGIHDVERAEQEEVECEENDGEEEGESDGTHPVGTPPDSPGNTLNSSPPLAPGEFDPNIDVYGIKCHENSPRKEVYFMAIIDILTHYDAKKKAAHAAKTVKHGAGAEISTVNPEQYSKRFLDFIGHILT
The experiment can be described thus: Kinase Assay PIP4K2 A (Table 2). To be noted: compounds listed under IC50 bins. More on the design: 4 nM PIP4K2A (full length protein, SignalChem); purchased SignalChem. The experiment is classed as biochemical. The method, then:
Dilution series of the compounds were prepared in DMSO at 100 times the final assay concentration (n1=n0/3 in 10 points). The compounds were further diluted to three times the assay concentration in assay buffer (20 mM MOPS pH 7.2, 25 mM magnesium chloride, 0.005% Tween 20). 6 μL of the diluted compounds were added to a 384 well assay plate followed by 9 μL of a mix consisting of 4 nM PIP4K2A (full length protein, SignalChem) and 100 μM PI(5)P diC8 (Tebu-Bio). Enzyme and compounds were pre-incubated at room temperature for 15 minutes.
Then 3 μL of a solution containing 60 μM ATP (Promega) in assay buffer was added to the wells containing compound and enzyme and mixing was performed by pipetting several times. The reaction was incubated at room temperature for 1 h. Then 18 μL of ADP-Glo™ Reagent (Promega) was added to stop the kinase reaction and deplete the unconsumed ATP, mixing was performed by pipetting several times. The plate was incubated at room temperature for 40 minutes before addition of 36 μL of Kinase Detection Reagent (Promega) to convert ADP to ATP and introduce luciferase and luciferin to detect ATP. The reaction was incubated at room temperature for 40 minutes before the luminescence was measured in a in a Victor 3V 1420 multilabel counter (Perkin Elmer).
Percent inhibition of the compounds as compared to dimethyl sulfoxide treated control samples was calculated. Compound concentration versus percent inhibition were fitted to generate IC50 values.

For orientation: IC50 means the concentration that inhibits the measured activity by half. For `CN(C)C(=O)c1ccc(-c2ccc(Nc3cnc4c(c3)NC(=O)CO4)nc2)cc1` [Example 88, N,N-dimethyl-4-(6-((2-oxo-2,3-dihydro-1H-pyrido[2,3-b][1,4]oxazin-7-yl)amino)pyridin-3-yl)benzamide], the half-inhibitory concentration (IC50) is more than 1000 nM in experiment [1] and 100 to 1000 nM in experiment [2].
Taken in the same sequence, the figures for `CN(C)C(=O)c1ccc(-c2ccc(Nc3cnc4c(c3)N(C(=O)C3CC3)CCO4)nc2)cc1` [Example 90, 4-(6-((1-(cyclopropanecarbonyl)-2,3-dihydro-1H-pyrido[2,3-b][1,4]oxazin-7-yl)amino)pyridin-3-yl)-N,N-dimethylbenzamide] were 10 to 100 nM and 1 to 10 nM.
Taken in the same sequence, the figures for `CC(=O)OC(C)C(=O)N1CCOc2ncc(Nc3ccc(-c4ccc(C(=O)N(C)C)cc4)cn3)cc21` (centres unmarked) [Example 91, 1-(7-((5-(4-(dimethylcarbamoyl)phenyl)pyridin-2-yl)amino)-2,3-dihydro-1H-pyrido[2,3-b][1,4]oxazin-1-yl)-1-oxopropan-2-yl acetate] were 10 to 100 nM and 10 to 100 nM.
Taken in the same sequence, the figures for `CC(O)C(=O)N1CCOc2ncc(Nc3ccc(-c4ccc(C(=O)N(C)C)cc4)cn3)cc21` (centres unmarked) [Example 92, 4-(6-((1-(2-hydroxypropanoyl)-2,3-dihydro-1H-pyrido[2,3-b][1,4]oxazin-7-yl)amino)pyridin-3-yl)-N,N-dimethylbenzamide] were 10 to 100 nM and 1 to 10 nM.
As for `COC(=O)N1CCOc2ncc(Nc3ccc(-c4ccc(C(=O)N(C)C)cc4)cn3)cc21` [Example 93, methyl 7-((5-(4-(dimethylcarbamoyl)phenyl)pyridin-2-yl)amino)-2,3-dihydro-1H-pyrido[2,3-b][1,4]oxazine-1-carboxylate], the half-inhibitory concentration (IC50) in experiment [1] fell in the range of 10 to 100 nM; in experiment [2], 1 to 10 nM.
For `CN(C)C(=O)c1ccc(-c2ccc(Nc3cnc4c(c3)N(C(=O)C(C)(C)C)CCO4)nc2)cc1` [Example 97, N,N-dimethyl-4-(6-((1-pivaloyl-2,3-dihydro-1H-pyrido[2,3-b][1,4]oxazin-7-yl)amino)pyridin-3-yl)benzamide], the IC50 in experiment [1] is 10 to 100 nM; in experiment [2] it was 1 to 10 nM.
For the compound `CN(C)C(=O)c1ccc(-c2ccc(Nc3cncc(NC(=O)c4cccc(N)c4)c3)nc2)cc1` [Example 99, 4-(6-((5-(3-aminobenzamido)pyridin-3-yl)amino)pyridin-3-yl)-N,N-dimethylbenzamide], the half-maximal inhibitory concentration (IC50) in experiment [1] and in experiment [2] was 10 to 100 nM in each case.
Take `CN(C)C(=O)c1ccc(-c2ccc(Nc3cncc(N)c3)nc2)cc1` [Example 115, 4-(6-((5-aminopyridin-3-yl)amino)pyridin-3-yl)-N,N-dimethylbenzamide]: the values for the 50% inhibitory concentration (IC50) in experiment [1] and in experiment [2] were more than 1000 nM and 100 to 1000 nM, respectively.
On to `CN1C[C@H]2COc3ncc(Nc4ccc(-c5ccc(N6CCCC6=O)cc5)cn4)cc3N2S1(=O)=O` [Example 175, (S)-1-(4-(6-((2-methyl-1,1-dioxido-2,3,3a,4-tetrahydropyrido[2,3-b][1,2,5]thiadiazolo[2,3-d][1,4]oxazin-8-yl)amino)pyridin-3-yl)phenyl)pyrrolidin-2-one], for which the figures for the IC50 in experiment [1] and in experiment [2] were 10 to 100 nM and 100 to 1000 nM, respectively.
Taken in the same sequence, the figures for `COCc1nc(Nc2cnc3c(c2)N2C(=O)C4(CC4)C[C@H]2CO3)ncc1-c1ccc(N2CCCC2=O)cc1` [Example 202, (S)-2′-((4-(methoxymethyl)-5-(4-(2-oxopyrrolidin-1-yl)phenyl)pyrimidin-2-yl)amino)-6a′,7′-dihydro-6′H,9′H-spiro[cyclopropane-1,8′-pyrido[2,3-b]pyrrolo[1,2-d][1,4]oxazin]-9′-one] were 1 to 10 nM and 1 to 10 nM.
The corresponding values for `CC(C)c1nc(Nc2cnc3c(c2)N2C(=O)CC[C@H]2CO3)ncc1-c1ccc(N2CCCC2=O)cc1` [Example 215, (S)-2-((4-isopropyl-5-(4-(2-oxopyrrolidin-1-yl)phenyl)pyrimidin-2-yl)amino)-6,6a,7,8-tetrahydro-9H-pyrido[2,3-b]pyrrolo[1,2-d][1,4]oxazin-9-one] are 1 to 10 nM and not above 1 nM.
Compound `CN(C)C(=O)Cc1cncc(Nc2ccc(-c3ccc(C(=O)N(C)C)cc3)cn2)c1` [Example 218, 4-(6-((5-(2-(dimethylamino)-2-oxoethyl)pyridin-3-yl)amino)pyridin-3-yl)-N,N-dimethylbenzamide] had an IC50 in experiment [2] of 100 to 1000 nM.
Same read-out and setting: as for `CNC(=O)c1ccc(-c2ccc(Nc3cncc(N4CCCC4=O)c3)nc2)cc1` [Example 219, N-methyl-4-(6-((5-(2-oxopyrrolidin-1-yl)pyridin-3-yl)amino)pyridin-3-yl)benzamide], the figure is more than 1000 nM; as for `CC(=O)Nc1ccc(-c2ccc(C(=O)N(C)C)cc2)cn1` [Example 220, 4-(6-acetamidopyridin-3-yl)-N,N-dimethylbenzamide], more than 1000 nM.
`CN(C)C(=O)c1ccc(-c2ccc(Nc3cc[nH]c(=O)c3)nc2)cc1` [Example 221, N,N-dimethyl-4-(6-((2-oxo-1,2-dihydropyridin-4-yl)amino)pyridin-3-yl)benzamide]: the 50% inhibitory concentration (IC50) in experiment [2] is more than 1000 nM.
In turn, `CN(C)C(=O)c1ccc(-c2cnc(Nc3cccnc3)nc2)cc1` [Example 264, N,N-dimethyl-4-(2-(pyridin-3-ylamino)pyrimidin-5-yl)benzamide] came in with an IC50 in experiment [2] of 100 to 1000 nM.
As for `Cn1cnnc1N1CC=C(c2ccc(Nc3cnc4c(c3)N3C(=O)CC[C@H]3CO4)nc2)CC1` [Example 274, (S)-2-((1′-(4-methyl-4H-1,2,4-triazol-3-yl)-1′,2′,3′,6′-tetrahydro-[3,4′-bipyridin]-6-yl)amino)-6,6a,7,8-tetrahydro-9H-pyrido[2,3-b]pyrrolo[1,2-d][1,4]oxazin-9-one], the figures for the IC50 in experiment [1] and in experiment [2] were 10 to 100 nM and 100 to 1000 nM, respectively.
